Results taken from PubChem BioAssay AID330 (DTP/NCI, 2004).
Several values for one entry are separate records, joined by “and”; a condition that tells them apart may be missing. Equal values may be shown once. Inconclusive results and toxic doses are left out. The calls were made as follows: active = survival T/C of 150% or more; inactive = T/C below 125% in these data. Peptide text beside a SMILES is read from it. * marks the point of attachment. Cbz = O=C(OCc1ccccc1)*

Test system: P388 leukemia ip, CD2F1 mice, survival T/C
Test: NCI In Vivo Anticancer Drug Screen. Data for tumor model P388 Leukemia (intraperitoneal) in CD2F1 (CDF1) mice
Details: endpoint: median survival time, higher = longer survival
Procedure, shortened: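 Mice carrying the transplanted tumor received test compound or vehicle. Survival was recorded in each group, and the value is the treated-group measurement divided by that of the vehicle-treated control group.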

[1] = dose: 25.0 mg/kg/injection, schedule: Q01DX009 (ip), vehicle: saline
[2] = dose: 50.0 mg/kg/injection, schedule: Q01DX009 (ip), vehicle: saline
[3] = dose: 100.0 mg/kg/injection, schedule: Q01DX009 (ip), vehicle: saline
[4] = dose: 200.0 mg/kg/injection, schedule: Q01DX009 (ip), vehicle: saline
[5] = dose: 25.0 mg/kg/injection, schedule: Q01DX005 (ip), vehicle: saline with Tween-80
[6] = dose: 50.0 mg/kg/injection, schedule: Q01DX005 (ip), vehicle: saline with Tween-80
[7] = dose: 6.25 mg/kg/injection, schedule: Q01DX009 (ip), vehicle: saline with Tween-80
[8] = dose: 12.5 mg/kg/injection, schedule: Q01DX009 (ip), vehicle: saline with Tween-80
[9] = dose: 25.0 mg/kg/injection, schedule: Q01DX009 (ip), vehicle: saline with Tween-80
[10] = dose: 50.0 mg/kg/injection, schedule: Q01DX009 (ip), vehicle: saline with Tween-80
[11] = dose: 100.0 mg/kg/injection, schedule: Q01DX005 (ip), vehicle: saline with Tween-80
[12] = dose: 50.0 mg/kg/injection, schedule: Q01DX005 (ip), vehicle: Klucel (hydroxypropylcellulose) (HPC)
[13] = dose: 100.0 mg/kg/injection, schedule: Q01DX005 (ip), vehicle: Klucel (hydroxypropylcellulose) (HPC)
[14] = dose: 200.0 mg/kg/injection, schedule: Q01DX005 (ip), vehicle: Klucel (hydroxypropylcellulose) (HPC)
[15] = dose: 50.0 mg/kg/injection, schedule: Q01DX009 (ip), vehicle: Klucel (hydroxypropylcellulose) (HPC)
[16] = dose: 200.0 mg/kg/injection, schedule: Q01DX005 (ip), vehicle: saline with Tween-80
[17] = dose: 100.0 mg/kg/injection, schedule: Q01DX009 (ip), vehicle: saline with Tween-80
[18] = dose: 200.0 mg/kg/injection, schedule: Q01DX009 (ip), vehicle: saline with Tween-80

Measured: T/C

Cc1ccc(S)c(S)c1
inactive: [1] 100 % of control | [2] 108 % of control | [3] 100 % of control and 106 % of control and 113 % of control | [4] 101 % of control | dose: 400.0 mg/kg/injection, schedule: Q01DX009 (ip), vehicle: saline 94 % of control | dose: 600.0 mg/kg/injection, schedule: Q01DX009 (ip), vehicle: saline 91 % of control

Cc1ccc(-c2nc3n(c2/C=N/NC(N)=S)CCS3)cc1
inactive: dose: 100.0 mg/kg/injection, schedule: Q01DX001 (ip), vehicle: saline with Tween-80 109 % of control | dose: 200.0 mg/kg/injection, schedule: Q01DX001 (ip), vehicle: saline with Tween-80 103 % of control | dose: 400.0 mg/kg/injection, schedule: Q01DX001 (ip), vehicle: saline with Tween-80 97 % of control

CCCn1c(C)nc2cc(C)cc(N)c21
inactive: dose: 12.5 mg/kg/injection, schedule: Q01DX005 (ip), vehicle: saline with Tween-80 100 % of control | [5] 89 % of control | [6] 90 % of control and 94 % of control

CN1CCCN(C(c2ccccc2)c2ccc(Cl)cc2)CC1 (stereo not drawn)
inactive: [7] 107 % of control | [8] 114 % of control and 115 % of control | [9] 107 % of control and 114 % of control | [10] 120 % of control

c1ccc(ON=C2c3ccccc3-c3ccccc32)cc1
inactive: dose: 75.0 mg/kg/injection, schedule: Q04DX003 (ip), vehicle: saline 113 % of control | dose: 125.0 mg/kg/injection, schedule: Q04DX003 (ip), vehicle: saline 109 % of control | dose: 250.0 mg/kg/injection, schedule: Q04DX003 (ip), vehicle: saline 104 % of control

CSc1nc2nc[nH]c(=O)c2[nH]1
inactive: [5] 95 % of control | [6] 99 % of control | [11] 94 % of control

O=C1c2ccccc2-c2c(NC(=O)C(Cl)Cl)cccc21
inactive: [12] 87 % of control | [13] 86 % of control | [14] 86 % of control

CCN(CC)CCCC(CCl)Nc1ccnc2cc(Cl)ccc12 (stereo not drawn)
inactive: [15] 113 % of control | [2] 97 % of control | dose: 100.0 mg/kg/injection, schedule: Q01DX009 (ip), vehicle: Klucel (hydroxypropylcellulose) (HPC) 100 % of control | [3] 100 % of control | dose: 200.0 mg/kg/injection, schedule: Q01DX009 (ip), vehicle: Klucel (hydroxypropylcellulose) (HPC) 98 % of control

CC(Sc1ccccn1)C(=O)c1ccccc1 (stereo not drawn)
inactive: [6] 102 % of control | [11] 109 % of control | [16] 102 % of control

CSC(SC)c1cc(-c2c(Cl)cccc2Cl)no1
inactive: dose: 60.0 mg/kg/injection, schedule: Q01DX005 (ip), vehicle: saline with Tween-80 102 % of control | dose: 120.0 mg/kg/injection, schedule: Q01DX005 (ip), vehicle: saline with Tween-80 103 % of control | dose: 240.0 mg/kg/injection, schedule: Q01DX005 (ip), vehicle: saline with Tween-80 103 % of control

Cc1cc(=NC(C)(C)C)nc2c3ccccc3c(Cl)cn12
inactive: dose: 1.56 mg/kg/injection, schedule: Q01DX005 (ip), vehicle: saline with Tween-80 100 % of control | dose: 3.13 mg/kg/injection, schedule: Q01DX005 (ip), vehicle: saline with Tween-80 100 % of control | dose: 6.25 mg/kg/injection, schedule: Q01DX005 (ip), vehicle: saline with Tween-80 103 % of control and 98 % of control

CCOC(=O)c1cnc2cc3c(cc2c1Nc1cccc(C)c1C)OCO3
inactive: dose: 60.0 mg/kg/injection, schedule: Q01DX005 (ip), vehicle: Klucel (hydroxypropylcellulose) (HPC) 101 % of control | dose: 120.0 mg/kg/injection, schedule: Q01DX005 (ip), vehicle: Klucel (hydroxypropylcellulose) (HPC) 101 % of control | dose: 240.0 mg/kg/injection, schedule: Q01DX005 (ip), vehicle: Klucel (hydroxypropylcellulose) (HPC) 95 % of control

CC1CCC(C(C)C)C(N)C1 (stereo not drawn)
inactive: dose: 25.0 mg/kg/injection, schedule: Q04DX002 (ip), vehicle: suspension in saline 100 % of control | dose: 50.0 mg/kg/injection, schedule: Q04DX002 (ip), vehicle: suspension in saline 93 % of control | dose: 100.0 mg/kg/injection, schedule: Q04DX002 (ip), vehicle: saline with Tween-80 89 % of control | dose: 100.0 mg/kg/injection, schedule: Q04DX002 (ip), vehicle: suspension in saline 102 % of control

COc1ccc(Cc2cc3c(cc2OCC(=O)Nc2ncccn2)OCO3)cc1
inactive: [6] 108 % of control | [11] 88 % of control | [16] 87 % of control

CSc1cccc(N=C(N)N)c1
inactive: [2] 100 % of control | [3] 98 % of control

O=Nc1ccc(Cn2cc(Br)c(=O)[nH]c2=O)o1
inactive: dose: 25.0 mg/kg/injection, schedule: Q01DX001 (ip), vehicle: Klucel (hydroxypropylcellulose) (HPC) 113 % of control | dose: 50.0 mg/kg/injection, schedule: Q01DX001 (ip), vehicle: Klucel (hydroxypropylcellulose) (HPC) 100 % of control | dose: 100.0 mg/kg/injection, schedule: Q01DX001 (ip), vehicle: Klucel (hydroxypropylcellulose) (HPC) 108 % of control

COc1cc(C2C(C(=O)OC/C=C/c3ccc4c(c3)OCO4)C(c3cc(OC)c(OC)c(OC)c3)C2C(=O)OC/C=C/c2ccc3c(c2)OCO3)cc(OC)c1OC (stereo not drawn)
inactive: [10] 87 % of control | [17] 93 % of control | [18] 95 % of control | dose: 400.0 mg/kg/injection, schedule: Q01DX009 (ip), vehicle: saline with Tween-80 102 % of control

OC(COc1c2ccccc2nc2ccccc12)CN1CCOCC1 (stereo not drawn)
inactive: [6] 99 % of control | [11] 93 % of control

CC(O)C(NC(=O)C(Cc1ccc(O)cc1)NC(=O)OCc1ccccc1)C(=O)O (stereo not drawn) (Cbz-Tyr-Thr-OH; configuration not given here)
inactive: dose: 50.0 mg/kg/injection, schedule: Q01DX005 (ip), vehicle: suspension in saline 105 % of control | dose: 100.0 mg/kg/injection, schedule: Q01DX005 (ip), vehicle: suspension in saline 96 % of control | dose: 200.0 mg/kg/injection, schedule: Q01DX005 (ip), vehicle: suspension in saline 111 % of control

COc1ccc(C2(c3ccc(OC)cc3)c3ccccc3C(=O)c3ccc(OC)cc32)cc1
inactive: [6] 98 % of control | [11] 100 % of control | [16] 96 % of control

CCSC1C(=O)N(C)C(SCC)C(=O)N1C (stereo not drawn)
inactive: dose: 12.5 mg/kg/injection, schedule: Q01DX009 (ip), vehicle: saline 103 % of control | [1] 109 % of control | [2] 100 % of control and 86 % of control

CCc1ccc(NCc2ccc(CNc3ccc(CC)cc3)cc2)cc1
inactive: [10] 86 % of control | [17] 96 % of control | [18] 94 % of control

COc1ccc(OC)c(NC(=O)Sc2c(Cl)c(Cl)nc(Cl)c2Cl)c1
inactive: [15] 120 % of control

CCOC(=O)c1[nH]c(=S)n(-c2ccccc2)c1C(=O)OCC
inactive: [7] 101 % of control | [8] 110 % of control | [9] 111 % of control | [10] 101 % of control

CC/C(=C(/CC)c1ccc(OC(=O)N(CCCl)CCCl)cc1)c1ccc(OC(=O)N(CCCl)CCCl)cc1
inactive: [2] 97 % of control | [3] 99 % of control | [4] 99 % of control

Cc1ccc(NNC(=O)C(=O)O[C@H]2C(=O)OC[C@@H]2O)cc1
inactive: [12] 100 % of control | [13] 100 % of control | [14] 93 % of control

Cc1ccc(N2C(=O)c3ccccc3NC2(C)CCl)cc1 (stereo not drawn)
inactive: [10] 103 % of control | [17] 103 % of control | [18] 112 % of control

CN(C)CCCNc1c2c(nc3ccc(Cl)cc13)CCCC2
inactive: [6] 104 % of control | [11] 106 % of control
